Source: US20210380683A1, “MODULATION OF IRF-4 AND USES THEREOF” (THE METHODIST HOSPITAL SYSTEM, priority 2018, published 2021)

Test system: Balb/c heart allograft in WT B6 mice
Experiment: Balb/c heart allograft survival in WT B6 recipients
Format: in vivo, mouse
Conditions: 3 mg/kg every other day from day 0 to day 12; WT B6 recipients of Balb/c hearts
Experimental: Murine heterotopic heart transplantation. Heart transplantation in mice was performed by a previously described method (Miyahara et al., 2012; Chen et al., 2007). In brief, hearts from Balb/c donors were transplanted into 8 to 10-week-old male WT B6, Irf4^fl/flCd4-Cre, CD45.1+ congenic, or Rag1−/− recipient mice. Pulmonary artery and aorta of donor heart were cut open, remaining heart vessels were tied off, and heart was removed. […] Anastomosis was made by 11-0 sutures running continuously. 6-0 silk thread was removed, and abdomen was then closed by 5-0 sutures in two layers. Heart graft survival was monitored daily by palpation, and the day of complete cessation of heartbeat was considered as the day of rejection. Recipient mice were i.p. injected with Rat IgG, anti-PD-L1 (10F.9G2), anti-CTLA-4 (9D9), anti-CD4 (GK1.5), anti-CD8 (53-6.7), or anti-CD25 (PC-61.5.3) mAbs obtained from Bio-X-Cell (West Lebanon, N.H.), oral gavaged with trametinib (Selleck Chemicals, Houston, Tex.) or corn oil, or i.v. transferred with WT B6, Irf4^−/−, TEa, TEa Irf4^−/−, or IRF4 re-introduced Irf4^−/− T cells. At various days post-transplant, splenocytes and graft infiltrating cells were obtained for flow cytometry analysis, and allografts were sectioned and stained with hematoxylin and eosin for microscopic evaluation.

CC(=O)Nc1cccc(-n2c(=O)n(C3CC3)c(=O)c3c(Nc4ccc(I)cc4F)n(C)c(=O)c(C)c32)c1 [trametinib]
heart allograft survival (MST): 13.17±0.75 days
